Assay results published in patent EP4570800A1, “CRYSTAL FORM OF PYRIDINOPYRIMIDINONE COMPOUND, ACID SALT THEREOF, CRYSTAL FORM OF ACID SALT THEREOF, AND USE” (Wuhan Humanwell Innovative Drug Research and Development …, priority 2022, dated 2024).
Where two headings read alike, the source gives them in different places.

Tests used:
[1] = test system: H358 cells; assay: Inhibition of 3D cell proliferation (3D CellTiter-Glo); format: cell-based
Procedure: H358 cells were seeded in a T75 culture flask, and cultured in a RPMI 1640 medium containing 10% FBS for 2 days for subsequent experiments in which the cells would be cultured or seeded on a 384-well plate.
On day 1, the cells were seeded on the 384-well plate, with 40 µL of medium added per well and serially diluted compounds or DMSO added per well, and an additional well without seeded cells but with medium was set up as a blank control. After culture at 37°C, 5% CO2 for 7 days, the plate was added with 3D CellTiter-Glo reagent (Promega, Cat. No. G9683) on day 8, shaken at 320 rpm for 20 min, and left at room temperature for 2 h. Luminescence signals were read on a multifunctional microplate reader. Cell viability inhibition rate was calculated as: [formula]
IC50 values were calculated using Graphpad 5 software.

[2] = Plasma protein binding rate by equilibrium dialysis; format: in vitro ADME; settings: compound 1 µM, equilibrium dialysis 37°C
Procedure: Plasma protein binding rate of compounds was detected by equilibrium dialysis (HTDialysis, HTD 96b). The compound was prepared into a […] stock solution with DMSO, and then 25-fold diluted with 0.05 M sodium phosphate buffer as a working solution. A blank 96-well plate was taken and preloaded with 380 µL of plasma per well. The plasma was then added with the working solution at 20 µL/well and mixed well, with the compound at a final concentration of 1 µM, containing 0.2% DMSO per well.
100 µL of 0.05 M sodium phosphate buffer was added to the receiver-side of each dialysis chamber (HTD 96b), and then 100 µL of plasma containing the compound was added to the supply-side. The dialysis chamber was covered with a plastic lid, shaken, and incubated at 37°C for 5 h.
After incubation, 25 µL of sample was taken from each of the supply-side and the receiver-side of the dialysis chamber, and placed in the blank 96-well plate. An equal volume of plasma was added to each of the supply-side samples while an equal volume of 0.05 M sodium phosphate buffer was added to each of the receiver-side samples, and mixed well. […]
Plasma protein binding rate and free fraction were calculated using the following formulas: % binding rate = 100 × ([supply-side concentration]5h - [receiver-side concentration]5h)/[supply-side concentration]5h. % free fraction = 100 - % binding rate

Cc1nc(N[C@H](C)c2cccc(S(F)(F)(F)(F)F)c2)c2cn(C3(CF)CC3)c(=O)cc2n1 [Compound of formula I, (R)-6-(1-(fluoromethyl)cyclopropyl)-2-methyl-4-((1-(3-(pentafluorosulfanyl)phenyl)ethyl)amino)pyrido[4,3-d]pyrimidin-7(6H)-one]
IC50 ([1]; Homo sapiens, NCI-H358, 168 h, 3D cell proliferation in H358 cells, 7 days culture, 3D CellTiter-Glo): 11.5 nM
inhibitory effect on the 3D proliferation of H358 cells ([1]; summary statement): strong inhibitory effect
fraction unbound at 5 h, 1 µM ([2]; human plasma, read-out: free fraction in plasma, Human (%)): 0.017
fraction unbound at 5 h, 1 µM ([2]; mouse plasma, read-out: free fraction in plasma, Mouse (%)): 0.011
